From patent publication US9593305B2, “Differentiation of pluripotent stem cells” (Janssen Biotech, Inc., priority 2008, dated 2017) come the findings set out here.

Like-named read-outs stand apart in the source and are kept apart here.

This test deals with H1 human embryonic stem cells. The test is described as follows: Secondary assay: compound combined with individual growth factors or small molecules, no activin A (Example 5, Table 4). The format is cell-based. Conditions: for increase in SOX17 expression (% of the activin A/Wnt3a control): growth factor 50 ng/ml combined with 2.5 μM compound and Wnt3a. On the procedure: Clusters of H1 human embryonic stem cells were grown on reduced growth factor […]™ (Invitrogen; Cat #356231)-coated tissue culture plastic. Cells were passaged using collagenase (Invitrogen; Cat #Cat #17104-019) treatment and gentle scraping, washed to remove residual enzyme, and plated with even dispersal at a ratio of 1:1 (surface area) on reduced growth factor […]™-coated 96-well black plates (Packard ViewPlates; PerkinElmer; Cat #6005182) using volumes of 100 μl/well. Cells were allowed to attach as clusters and then recover log phase growth over a 1 to 3 day period, feeding daily with MEF conditioned medium supplemented with 8 ng/ml bFGF (R&D Systems; Cat #233-FB). Plates were maintained at 37° C., 5% CO2 in a humidified box throughout the duration of assay.
Other agents tested were purchased as follows: BMP-7 (Sigma; Cat #B1434), LY294002 (Cayman; Cat 70920), PD98059, U0126, U0124 (EMD Biosciences; Cat #453710), muscimol (Tocris; Cat #0289), biuculline (Tocris; Cat #0130), sodium butyrate (Sigma; Cat #B5887). All growth factors were solubilized in PBS with 0.1% BSA (Sigma; Cat #A7888) and stored frozen at −80° C. Small molecules were solubilized in 100% DMSO (Sigma; Cat #D2650) and stored frozen at −80° C. The compounds were available as 5 mM stocks in 96-well plate format, solubilized in 100% DMSO and stored at −80° C. The compounds of the present invention were further diluted to an intermediate concentration of 0.2 mM in 50 mM HEPES (Invitrogen; Cat #15630-080), 20% DMSO and stored at 4° C. All growth factors and inhibitors were prepared in a deep well, 96-well polypropylene plate, diluted to 5× intermediate stocks in DMEM:F12 base medium at the beginning of assay and stored at 4° C.
A secondary screening assay was conducted, testing in triplicate and feeding on alternate days over the four-day assay timeframe. Assays were initiated by aspirating culture medium from each well followed by three washes in PBS to remove residual growth factors and serum. Test volumes of 80 μl per well were added back containing DMEM:F12 base medium (Invitrogen; Cat #11330-032) supplemented with 0.625% FCS (HyClone; Cat #SH30070.03), 25 ng/ml Wnt3a (R&D Systems), and 3.125 μM compound plus 20 μl 5× stock of growth factor or small molecule to yield a final concentration of 0.5% FCS, 20 ng/ml Wnt3a, and 2.5 μM compound. […] Final assay concentrations of small molecules tested were as follows: muscimol (20 μM), PD98059 (1 μM), LY294002 (2.5 μM), 00124 (1 μM), U0126 (1 μM), sodium butyrate (0.5 mM). Positive control wells (100 μl/well) contained the same base medium supplemented with 0.5% FCS, 20 ng/ml Wnt3a and 100 ng/ml activin A. Negative control wells (100 μl/well) contained the same base medium with 0.5% FCS and 20 ng/ml Wnt3a, omitting activin A.
On day 3, wells were aspirated and fed with 80 μl DMEM:F12 base medium supplemented with 2.5% FCS (HyClone) and 3.125 μM cyclic aniline-pyridinotriazine compound plus 20 μl 5× stock of growth factors or small molecules per well to yield a final concentration of 2% FCS and 2.5 μM compound (omitting Wnt3a) and as denoted on day one for all remaining growth factors or small molecules. Positive control wells (100 μl/well) contained the same base medium supplemented with 2% FCS and 100 ng/ml activin A, omitting Wnt3a. Negative control wells (100 μl/well) contained the same base medium with 2% FCS, omitting both activin A and Wnt3a.
At the conclusion of four-days of culture, assay plates were washed twice with PBS, fixed with 4% paraformaldehyde (Alexis Biochemical; Cat #ALX-350-011) at room temperature for 20 minutes, then washed three times with PBS and permeabilized with 0.5% Triton X-100 (Sigma; Cat #T8760-2) for 20 minutes at room temperature. Cells were washed again three times with PBS and blocked with 4% chicken serum (Invitrogen; Cat #16110082) in PBS for 30 minutes at room temperature.

Where [1] appears, read: agent combined with 2.5 μM compound and Wnt3a, no activin A.

As to `N#CC(=C(/N)Sc1ccccc1N)/C(C#N)=C(\N)Sc1ccccc1N` [Compound U0126, U0126, reference compound], the “effect on SOX17 expression” value is listed as “inhibited or had negligible effects on SOX17 expression”.
As for `COc1cccc(-c2cc(=O)c3ccccc3o2)c1N` [PD98059, reference compound], the “effect on SOX17 expression” value under setting [1] is listed as “inhibited or had negligible effects on SOX17 expression”.
Take VEGF: the “increase in SOX17 expression (% of the activin A/Wnt3a control)” value (no activin A) amounted to 18%.
As for `NCc1cc(=O)[nH]o1` [muscimol, reference compound], the “effect on SOX17 expression” value under setting [1] was “modest increase in SOX17 expression”.
Turning to `CCCC(=O)[O-].[Na+]` [sodium butyrate, reference compound], the “effect on SOX17 expression” value under setting [1] is listed as “inhibited or had negligible effects on SOX17 expression”.
Same read-out and setting: the result for `CS/C(N)=C(C#N)/C(C#N)=C(\N)SC` [Compound U0124, U0124, reference compound] reads “inhibited or had negligible effects on SOX17 expression”.

B1: BMP-7: member of the BMP family (protein, UniProt P18075 293-431, looked up)
Bone morphogenetic protein 7: STGSKQRSQNRSKTPKNQEALRMANVAENSSSDQRQACKKHELYVSFRDLGWQDWIIAPEGYAAYYCEGECAFPLNSYMNATNHAIVQTLVHFINPETVPKPCCAPTQLNAISVLYFDDSSNVILKKYRNMVVRACGCH
As for B1, under setting [1], the “effect on SOX17 expression” value is reported as “inhibited or had negligible effects on SOX17 expression”.

B2: BMP-1: member of the BMP family, R&D Systems (protein, UniProt P13497 121-986, looked up)
Bone morphogenetic protein 1: AATSRPERVWPDGVIPFVIGGNFTGSQRAVFRQAMRHWEKHTCVTFLERTDEDSYIVFTYRPCGCCSYVGRRGGGPQAISIGKNCDKFGIVVHELGHVVGFWHEHTRPDRDRHVSIVRENIQPGQEYNFLKMEPQEVESLGETYDFDSIMHYARNTFSRGIFLDTIVPKYEVNGVKPPIGQRTRLSKGDIAQARKLYKCPACGETLQDSTGNFSSPEYPNGYSAHMHCVWRISVTPGEKIILNFTSLDLYRSRLCWYDYVEVRDGFWRKAPLRGRFCGSKLPEPIVSTDSRLWVEFRSSSNWVGKGFFAVYEAICGGDVKKDYGHIQSPNYPDDYRPSKVCIWRIQVSEGFHVGLTFQSFEIERHDSCAYDYLEVRDGHSESSTLIGRYCGYEKPDDIKSTSSRLWLKFVSDGSINKAGFAVNFFKEVDECSRPNRGGCEQRCLNTLGSYKCSCDPGYELAPDKRRCEAACGGFLTKLNGSITSPGWPKEYPPNKNCIWQLVAPTQYRISLQFDFFETEGNDVCKYDFVEVRSGLTADSKLHGKFCGSEKPEVITSQYNNMRVEFKSDNTVSKKGFKAHFFSDKDECSKDNGGCQQDCVNTFGSYECQCRSGFVLHDNKHDCKEAGCDHKVTSTSGTITSPNWPDKYPSKKECTWAISSTPGHRVKLTFMEMDIESQPECAYDHLEVFDGRDAKAPVLGRFCGSKKPEPVLATGSRMFLRFYSDNSVQRKGFQASHATECGGQVRADVKTKDLYSHAQFGDNNYPGGVDCEWVIVAEEGYGVELVFQTFEVEEETDCGYDYMELFDGYDSTAPRLGRYCGSGPPEEVYSAGDSVLVKFHSDDTITKKGFHLRYTSTKFQDTLHSRK
In the case of B2, under setting [1], the “effect on SOX17 expression” value is recorded as “inhibited or had negligible effects on SOX17 expression”.

B3: FGF4: growth factor purchased from R&D Systems (protein, UniProt P08620 31-206, looked up)
Fibroblast growth factor 4: APTAPNGTLEAELERRWESLVALSLARLPVAAQPKEAAVQSGAGDYLLGIKRLRRLYCNVGIGFHLQALPDGRIGGAHADTRDSLLELSPVERGVVSIFGVASRFFVAMSSKGKLYGSPFFTDECTFKEILLPNNYNAYESYKYPGMFIALSKNGKTKKGNRVSPTMKVTHFLPRL
With B3, the “retention of cell numbers” value (50 ng/ml combined with 2.5 μM compound and Wnt3a, no activin A) is given as “not able to support retention of cell numbers”. For the same molecule, the “increase in SOX17 expression (% of the activin A/Wnt3a control)” value (no activin A) was determined as 17%.

B4: BMP-6: member of the BMP family, R&D Systems (protein, UniProt P22004 375-513, looked up)
Bone morphogenetic protein 6: SASSRRRQQSRNRSTQSQDVARVSSASDYNSSELKTACRKHELYVSFQDLGWQDWIIAPKGYAANYCDGECSFPLNAHMNATNHAIVQTLVHLMNPEYVPKPCCAPTKLNAISVLYFDDNSNVILKKYRNMVVRACGCH
For the molecule B4, the “effect on SOX17 expression” value under setting [1] is reported as “inhibited or had negligible effects on SOX17 expression”.
